# Assay results as given in patent US11197856B2, “Bicyclic compounds and methods for their use in treating autism” (priority 2013, dated 2021).
# What was measured:
# [1] = tested on: MeCP2 knockout mice; test: Nocturnal activity measurements; assay type: in vivo; conditions: MeCP2 knockout mice after 6 weeks; nocturnal infrared beam crossing
# Method: Spontaneous motor activity is measured by using an infrared beam-activated movement-monitoring chamber (Opto-Varimax-MiniA; Columbus Instruments, Columbus, Ohio). For each experiment, a mouse is placed in the chamber at least 3 h before recordings started. Movement is monitored during the normal 12-h dark cycle (7 p.m. to 7 a.m.). One dark cycle per animal per time point is collected.
# MeCP2−/y mice develop Rett-like symptoms beginning at 4-6 weeks of age when they progressively become lethargic, develop gait ataxia and […] (Chen et al., 2001). Baseline locomotor activity is also recorded in mice after 6 weeks by counting nocturnal infrared beam crossing events within a caged area.
# [2] = tested on: MeCP2 deficient mice; test: Seizure activity, electroencephalograph recordings in MeCP2 deficient mice; assay type: in vivo
# Description: Electroencephalograph: recordings of wild-type mice and MeCP2 deficient mice treated with either saline or cG-2-AllylP are obtained using methods described in U.S. Pat. No. 7,714,020, incorporated fully by reference.
# [3] = tested on: AMPA receptors GluR1; test: AMPA glutamate receptor-1 immunohistochemical staining of hippocampus; assay type: in vivo, male Wistar rats
# Method: Aged rats (male Wistar rats, 18-20 months old) were divided into four groups: two vehicle-treated (groups 1 and 3) and two G-2-AllylP treated (groups 2 and 4) (all groups n=6-8). Cyclic G-2-AllylP was synthesised by the Department of Medicinal Chemistry and dissolved in normal saline before the treatment. On day 1 a single dose of cyclic G-2-AllylP was given centrally (20 ng/animal, i.c.v.) to the animals in groups 2 and 4; saline was administered to groups 1 and 3. The memory tests using Novel Object Recognition Test started either on day 3 (groups 1 and 2) or 24 (groups 3 and 4) after the treatment. On the completion of the NORT, the rats were killed with an overdose of sodium pentobarbital and were perfused transcardially with normal saline followed by 10% formalin. Tissues collected at day 7 in groups 1 and 2, and at day 28 from groups 3 and 4. The brains were kept in the same fixative for a minimum of 2 days before being processed using a standard paraffin embedding procedure. Briefly, small blocks (10×10×3 mm) of tissue were fixed for up to 24 hrs. The blocks were then infiltrated and embedded with paraffin and cut in ribbons and mounted on slides. […]
# The following antibodies were used: • i) primary rabbit antibody to NMDA NR1 subunit, at 1:200 concentration in buffer, incubated for 48 hrs (Chemicon—AB1516), followed by Sigma fluorescent secondary antibody (alexaFluor 394), at 1:200 dilution, incubated for 24 hours at 40C. • ii) primary antibody to AMPA GluR1 subunit, at 1:30 concentration in buffer, incubated for 48 hrs (Chemicon—AB1504) followed by 3,3′-diaminobenzidine (DAB) at 1:200 dilution, incubated for 24 hours at 40C. • iii) Primary antibody to mSynaptophysin (Sigma—S5768), at 1:200 concentration in buffer, followed by DAB at 1:200 dilution, incubated for 24 hours at 40C. • iv) Primary antibody to rKrox-24 (Santa Cruz—catalogue number SC-189) at 1:200 concentration in the buffer, followed by anti-rabbit secondary antibody at concentration of 1:200 dilution, incubated for 24 hours at 40C. • y) Antibodies were detected using light microscopy. […]
# [4] = tested on: heterozygous Shank3-deficient mice; test: Shank3-deficient mice: olfactory habituation/dishabituation; assay type: in vivo; conditions: all 4 groups
# Method: 1 to 3 month old wild-type and heterozygous Shank3-deficient mice are divided into 4 treatment groups: placebo treated wild-type, placebo treated Shank3-deficient group and two Shank3-deficient cG-2-AllylP treated groups. The animals are given placebo (water) or cG-2-AllylP formulated in water administered orally, b.i.d for 14 days. cG-2-AllylP is administered at two doses: 15 or 60 mg/kg.
# Olfactory habituation/dishabituation testing is conducted in male and female mice for each group. The methodology is as previously described (Silverman et al 2010, Yang et al 2009 and Silverman et al 2010). Non-social and social odors are presented on a series of cotton swabs inserted into the home cage sequentially, each for 2 min, in the following order; water, water, water (distilled water); almond, almond, almond (1:100 dilution almond extract); banana, banana, banana (1:100 dilution artificial banana flavouring); social 1, social 1, social 1 (swiped from the bottom of a cage housing unfamiliar sex-matched B6 mice); and social 2, social 2, social 2 (swiped from the bottom of a second cage housing a different group of unfamiliar sex-matched 129/SvImJ mice). One-way repeated measures ANOVA is performed within each treatment group for each set of habituation events and each dishabituation event, followed by a Tukey post hoc test.
smiles,measurement,setting,value
"C=CC[C@]12CCCN1C(=O)CNC2=O [cG-2-AllylP, (8aS)-Allyl-hexahydropyrrolo[1,2-a]pyrazine-1,4-dione]",locomotor activity levels,[1],elevates these levels
same,motor seizures and non-convulsive seizures,[2],effective in decreasing both motor seizures and non-convulsive seizures
same,number of AMPA receptors GluR1,"[3]; CA1 granular cell layer, day 28",significant increase in the number of AMPA receptors
same,number of AMPA receptors GluR1,"[3]; CA1 stratum oriens, day 28",significant increase in the number of AMPA receptors
same,number of AMPA receptors GluR1,"[3]; CA3, day 7 or 28, 20 ng/animal i.c.v.",no change in the number of receptors
same,olfactory habituation,[4],normal levels of habituation
